Laboratory results from patent US20220119354A1, “DIAMINO-SUBSTITUTED PYRIDINES AND PYRIMIDINES AS HERBICIDES” (FMC Corporation, priority 2019, published 2022).

Assays:
Type in all cases: in vivo
[1] = test system: ragweed (common ragweed, Ambrosia elatior); assay: Test A preemergence, ragweed; settings: 0 to 100 scale
How it was run: (§1)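 Seeds sown in loam–sand blend received a directed soil spray of test chemical in non-phytotoxic solvent with surfactant (preemergence); postemergence plants at 2–10 cm, one- to two-leaf stage, were sprayed with the same formulation. Injury rated visually versus untreated controls after ~10 d in greenhouse, 0–100 scale.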

[2] = test system: ryegrass, Italian (Lolium multiflorum); assay: Test A postemergence, Italian ryegrass; settings: 0 to 100 scale
How it was run: as §1

[3] = test system: ryegrass, Italian (Lolium multiflorum); assay: Test A preemergence, Italian ryegrass; settings: 0 to 100 scale
How it was run: as §1

[4] = test system: wheat (Triticum aestivum); assay: Test A postemergence, wheat; settings: 0 to 100 scale
How it was run: as §1

[5] = test system: barnyardgrass (Echinochloa crus-galli); assay: Test A postemergence, barnyardgrass; settings: 0 to 100 scale
How it was run: as §1

[6] = test system: galium (catchweed bedstraw, Galium aparine); assay: Test A postemergence, galium; settings: 0 to 100 scale
How it was run: as §1

[7] = test system: barnyardgrass (Echinochloa crus-galli); assay: Test A preemergence, barnyardgrass; settings: 0 to 100 scale
How it was run: as §1

kochia (Kochia scoparia) [8] = assay: Test A preemergence, kochia; settings: 0 to 100 scale
How it was run: as §1

[9] = test system: ducksalad (Heteranthera limosa); assay: Test B flooded paddy test, ducksalad; settings: Flood, 250 g ai/ha, applied to paddy water, 2-leaf stage, visual evaluation after 13 to 15 d
How it was run: (§2)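 Each response is a visual 0–100 rating made against untreated controls, where 0 is no effect and 100 is complete control; a dash marks no result. Compound was dosed into 3 cm paddy water over 2-leaf plants, assessed after 13 to 15 d.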

corn (Zea mays) = assay: Test A postemergence, corn; settings: 0 to 100 scale
How it was run: as §1

[10] = test system: pigweed (Amaranthus retroflexus); assay: Test A preemergence, pigweed; settings: 0 to 100 scale
How it was run: as §1

[11] = test system: blackgrass (Alopecurus myosuroides); assay: Test A postemergence, blackgrass; settings: 0 to 100 scale
How it was run: as §1

[12] = test system: sedge, umbrella (small-flower umbrella sedge, Cyperus difformis); assay: Test B flooded paddy test, umbrella sedge; settings: Flood, 250 g ai/ha, applied to paddy water, 2-leaf stage, visual evaluation after 13 to 15 d
How it was run: as §2

[13] = test system: foxtail, giant (Setaria faberii); assay: Test A preemergence, giant foxtail; settings: 0 to 100 scale
How it was run: as §1

rice (Oryza sativa) = assay: Test B flooded paddy test, rice; settings: Flood, 250 g ai/ha, applied to paddy water, 2-leaf stage, visual evaluation after 13 to 15 d
How it was run: as §2

[14] = test system: ragweed (common ragweed, Ambrosia elatior); assay: Test A postemergence, ragweed; settings: 0 to 100 scale
How it was run: as §1

[15] = test system: foxtail, giant (Setaria faberii); assay: Test A postemergence, giant foxtail; settings: 0 to 100 scale
How it was run: as §1

[16] = test system: pigweed (Amaranthus retroflexus); assay: Test A postemergence, pigweed; settings: 0 to 100 scale
How it was run: as §1

[17] = test system: barnyardgrass (Echinochloa crus-galli); assay: Test B flooded paddy test, barnyardgrass; settings: Flood, 250 g ai/ha, applied to paddy water, 2-leaf stage, visual evaluation after 13 to 15 d
How it was run: as §2

kochia (Kochia scoparia) [18] = assay: Test A postemergence, kochia; settings: 0 to 100 scale
How it was run: as §1

SMILES | Plant response rating, Ragweed ([1]; 125 g ai/ha) | Plant response rating, Ragweed ([1]; 500 g ai/ha) | Plant response rating, Ryegrass, Italian ([2]; 125 g ai/ha) | Plant response rating, Ryegrass, Italian ([2]; 500 g ai/ha) | Plant response rating, Ryegrass, Italian ([3]; 125 g ai/ha) | Plant response rating, Ryegrass, Italian ([3]; 500 g ai/ha) | Plant response rating, Wheat ([4]; 125 g ai/ha) | Plant response rating, Wheat ([4]; 500 g ai/ha) | Plant response rating, Barnyardgrass ([5]; 125 g ai/ha) | Plant response rating, Barnyardgrass ([5]; 500 g ai/ha) | Plant response rating, Galium ([6]; 125 g ai/ha) | Plant response rating, Galium ([6]; 500 g ai/ha) | Plant response rating, Barnyardgrass ([7]; 125 g ai/ha) | Plant response rating, Barnyardgrass ([7]; 500 g ai/ha) | Plant response rating, Kochia (kochia (Kochia scoparia) [8]; 125 g ai/ha) | Plant response rating, Kochia (kochia (Kochia scoparia) [8]; 500 g ai/ha) | Plant response rating, Ducksalad (0 to 100 scale, 0 is no effect, 100 is complete control) [9] | Plant response rating, Corn (corn (Zea mays); 125 g ai/ha) | Plant response rating, Corn (corn (Zea mays); 500 g ai/ha) | Plant response rating, Pigweed ([10]; 125 g ai/ha) | other results
C[C@@H](Nc1ncc(C(F)(F)F)c(N)n1)c1cc2cc(F)ccc2o1 [Compound 9] | 0 | 90 | 0 | 30 | 0 | 50 | 0 | 0 | 10 | 70 | 80 | 80 | 80 | 80 | 60 | 70 | 0 | 0 | 20 | 100 | Plant response rating, Pigweed ([10]; 500 g ai/ha): 100; Plant response rating, Blackgrass ([11]; 125 g ai/ha): 0; Plant response rating, Blackgrass ([11]; 500 g ai/ha): 30; Plant response rating, Sedge, Umbrella (0 to 100 scale, 0 is no effect, 100 is complete control) [12]: 0; Plant response rating, Foxtail, Giant ([13]; 125 g ai/ha): 40; Plant response rating, Foxtail, Giant ([13]; 500 g ai/ha): 90; Plant response rating, Rice (0 to 100 scale, 0 is no effect, 100 is complete control) (rice (Oryza sativa)): 0; Plant response rating, Ragweed ([14]; 125 g ai/ha): 60; Plant response rating, Ragweed ([14]; 500 g ai/ha): 80; Plant response rating, Foxtail, Giant ([15]; 125 g ai/ha): 0; Plant response rating, Foxtail, Giant ([15]; 500 g ai/ha): 90; Plant response rating, Pigweed ([16]; 125 g ai/ha): 90; Plant response rating, Pigweed ([16]; 500 g ai/ha): 90; Plant response rating, Barnyardgrass (0 to 100 scale, 0 is no effect, 100 is complete control) [17]: 0; Plant response rating, Kochia (kochia (Kochia scoparia) [18]; 125 g ai/ha): 80; Plant response rating, Kochia (kochia (Kochia scoparia) [18]; 500 g ai/ha): 90
Cc1ccc2oc([C@@H](C)Nc3ncc(C(F)(F)F)c(N)n3)cc2c1 [Compound 10] | 0 | 50 | 0 | 0 | 0 | 20 | 0 | 0 | 0 | 20 | 50 | 70 | 20 | 30 | 0 | 0 | 0 | 0 | 0 | 0 | Plant response rating, Pigweed ([10]; 500 g ai/ha): 60; Plant response rating, Blackgrass ([11]; 125 g ai/ha): 0; Plant response rating, Blackgrass ([11]; 500 g ai/ha): 20; Plant response rating, Sedge, Umbrella (0 to 100 scale, 0 is no effect, 100 is complete control) [12]: 0; Plant response rating, Foxtail, Giant ([13]; 125 g ai/ha): 0; Plant response rating, Foxtail, Giant ([13]; 500 g ai/ha): 60; Plant response rating, Rice (0 to 100 scale, 0 is no effect, 100 is complete control) (rice (Oryza sativa)): 0; Plant response rating, Ragweed ([14]; 125 g ai/ha): 20; Plant response rating, Ragweed ([14]; 500 g ai/ha): 80; Plant response rating, Foxtail, Giant ([15]; 125 g ai/ha): 0; Plant response rating, Foxtail, Giant ([15]; 500 g ai/ha): 40; Plant response rating, Pigweed ([16]; 125 g ai/ha): 80; Plant response rating, Pigweed ([16]; 500 g ai/ha): 90; Plant response rating, Barnyardgrass (0 to 100 scale, 0 is no effect, 100 is complete control) [17]: 0; Plant response rating, Kochia (kochia (Kochia scoparia) [18]; 125 g ai/ha): 0; Plant response rating, Kochia (kochia (Kochia scoparia) [18]; 500 g ai/ha): 0
Cc1cc2cc([C@@H](C)Nc3ncc(C(F)(F)F)c(N)n3)oc2cc1C [Compound 11] | 0 | 90 | 0 | 0 | 20 | 30 | 0 | 0 | 20 | 30 | 50 | 70 | 20 | 70 | 0 | 10 | 0 | 40 | 0 | 20 | Plant response rating, Pigweed ([10]; 500 g ai/ha): 100; Plant response rating, Blackgrass ([11]; 125 g ai/ha): 0; Plant response rating, Blackgrass ([11]; 500 g ai/ha): 20; Plant response rating, Sedge, Umbrella (0 to 100 scale, 0 is no effect, 100 is complete control) [12]: 0; Plant response rating, Foxtail, Giant ([13]; 125 g ai/ha): 40; Plant response rating, Foxtail, Giant ([13]; 500 g ai/ha): 80; Plant response rating, Rice (0 to 100 scale, 0 is no effect, 100 is complete control) (rice (Oryza sativa)): 0; Plant response rating, Ragweed ([14]; 125 g ai/ha): 40; Plant response rating, Ragweed ([14]; 500 g ai/ha): 80; Plant response rating, Foxtail, Giant ([15]; 125 g ai/ha): 0; Plant response rating, Foxtail, Giant ([15]; 500 g ai/ha): 50; Plant response rating, Pigweed ([16]; 125 g ai/ha): 80; Plant response rating, Pigweed ([16]; 500 g ai/ha): 80; Plant response rating, Barnyardgrass (0 to 100 scale, 0 is no effect, 100 is complete control) [17]: 0; Plant response rating, Kochia (kochia (Kochia scoparia) [18]; 125 g ai/ha): 30; Plant response rating, Kochia (kochia (Kochia scoparia) [18]; 500 g ai/ha): 70
